# Active and inactive are the calls of the source. No rule for the calls is given here.
# Target: Signal transducer and activator of transcription 3 (Homo sapiens) (UniProt P40763)
# Assay: STAT3 activation reporter response, dose response, cell-based (AID 1398)
row,SMILES,IC50
1,CCOc1ccccc1C1CC(c2cccs2)=NN1S(C)(=O)=O (configuration not stated),> 55.7 µM (inactive)
2,CC1Cc2ccccc2N1Cc1cc(=O)n2ccsc2n1 (configuration not stated),inactive
3,Cc1c(C#N)c2ccccc2n1CC(=O)O,5.09 µM
4,CN1N=C(C(=O)N2CCc3c([nH]c4ccccc34)C2c2c(F)cccc2Cl)CCC1=O (configuration not stated),4.82 µM
5,Cc1ccccc1C1c2[nH]c3ccccc3c2CCN1C(=O)c1ccc(=O)n(C)n1 (configuration not stated),4.19 µM
6,COc1cccc(-c2nc(N3CCCCC3C)c3ccccc3n2)c1O (configuration not stated),> 55.7 µM (inactive)
7,CCOC(=O)CC1C(=O)NCCN1C(=O)c1cc2c(=O)n3cccc(C)c3nc2s1 (configuration not stated),> 55.7 µM (inactive)
8,COc1ccc(NC(=O)N2CCn3c2nc2ccccc23)cc1,> 55.7 µM (inactive)
9,COC(=O)c1n[nH]c2ccccc12,3.33 µM
10,O=C(C1CCCN(S(=O)(=O)c2cccc3cccnc23)C1)N1CCc2ccccc21 (configuration not stated),> 55.7 µM (inactive)
11,CN1CCN(C(=O)CNc2ccc(C(F)(F)F)cc2[N+](=O)[O-])CC1,3.56 µM
12,O=C(O)C(Cc1c[nH]c2ccccc12)N1Cc2ccccc2C1=O (configuration not stated),inactive
13,CCc1cc2c(NCCC(=O)O)nc(C)nc2s1,> 55.7 µM (inactive)
14,COc1ccc(Cl)cc1NC(=O)Nc1ccc(Br)cn1,> 55.7 µM (inactive)
15,COCCCNc1nc2c(-c3cccc(C(F)(F)F)c3)nnn2c2ccccc12,> 55.7 µM (inactive)
16,COc1ccc(S(=O)(=O)Nc2nc3ccccc3s2)cc1OC,inactive
17,COc1ccc(C2c3[nH]c4ccccc4c3CCN2C(=O)c2cc3ncccn3n2)c(F)c1 (configuration not stated),5.23 µM
18,CCCN(CCC)C(=O)Cn1c2ccccc2c2nc(=O)cc(C)n21,0.174 µM
19,Cc1cccc2c1NC(=O)/C2=C\C(=O)c1cccs1,> 18.6 µM (inactive)
20,COCc1cc(=O)n2c(-c3ccccc3OC)n[nH]c2n1,0.821 µM
21,COCCNC(=O)c1cc2c(-c3ccc(Cl)cc3)nn(C)c2s1,> 55.7 µM (inactive)
22,Cc1cc(C)n(-c2nnc3n2N=C(c2c[nH]c4ccccc24)CS3)n1,inactive
23,CN1CCN(CCCNC(=O)c2cc3c(-c4ccc(Cl)cc4)nn(C)c3s2)CC1,3.78 µM
24,COc1cc(NC(=O)c2cc(-c3ccco3)on2)c(OC)cc1Cl,1.71 µM
25,Cn1nc(-c2ccc(Cl)cc2)c2cc(C(=O)NCC3CCCO3)sc21 (configuration not stated),> 6.19 µM (inactive)
26,NC(=O)CSc1c[nH]c2ccccc12,inactive

row,SMILES,IC50
1,O=c1c2ccccc2ncn1Cc1ccco1,5.66 µM
2,CC1=NN(c2ccccc2)C(=O)/C1=C/c1c(O)[nH]c(=O)[nH]c1=O,> 55.7 µM (inactive)
3,Cc1nnc(NC(=O)c2oc3c(ccc4ccccc43)c2C)s1,> 0.619 µM (inactive)
4,CCN(CC)S(=O)(=O)c1ccc(-c2nnc3sc4cccc(C)c4n23)cc1,> 55.7 µM (inactive)
5,COCc1cc(C)nc2sc(C(=O)NN)c(-n3cccc3)c12,inactive
6,COc1ccc(Br)cc1C(=O)Nc1cccc(C)c1,inactive
7,CC1=C(C)C(=O)C(N2CCOCC2)=CC1=O,inactive
8,CN1C(=O)c2ccccc2C(C(=O)NCCCN2CCCC2=O)C1c1c[nH]c2ccccc12 (configuration not stated),> 55.7 µM (inactive)
9,CCCNC(=O)Cn1c2ccccc2c2nc(=O)cc(C)n21,3.33 µM
10,O=C(c1cc[n+]([O-])cc1)N1CCc2c([nH]c3ccccc23)C1c1ccccc1Cl (configuration not stated),8.29 µM
11,Cc1noc(/C=C/N(C)C)c1S(=O)(=O)N1CCc2ccccc21,inactive
12,CCOC(=O)c1sc(NCc2ccco2)c(-c2nc3ccccc3s2)c1N,9.76 µM
13,CCC(CC)NC(=O)Cc1ccccc1[N+](=O)[O-],> 55.7 µM (inactive)
14,O=C(CN1CCNCC1)Nc1ccc(Oc2ccccc2)cc1,> 55.7 µM (inactive)
15,CN(C)C(CN1C(=O)C2CC=CCC2C1=O)c1cn(C)c2ccccc12 (configuration not stated),> 55.7 µM (inactive)
16,Nc1nnc(Cc2c[nH]c3ccccc23)s1,> 55.7 µM (inactive)
17,NNc1ncnc2sc3c(c12)CCC3,> 55.7 µM (inactive)
18,COCCSc1ccccc1C(=O)NCCc1ccccc1,> 55.7 µM (inactive)
19,Nc1ccccc1Sc1nc2ccccc2[nH]1,inactive
20,O=C(COc1ccccc1Cl)Nc1cc(Cl)ccc1O,0.571 µM
21,Cc1nn(-c2ccc(Cl)cc2)c(N)c1C(O)(CSc1nccn1C)C(F)(F)F (configuration not stated),> 55.7 µM (inactive)
22,O=C(Cc1c[nH]c2ccccc12)Nc1nc2ccccc2[nH]1,4.98 µM
23,COc1ccc(C)cc1NC(=O)c1[nH]c(C)c(C(C)=O)c1C,inactive
24,COc1ccccc1C(=O)NNC(=S)Nc1ccccc1,> 0.229 µM (inactive)
25,c1ccc2c(CNC3CCCCCC3)c[nH]c2c1,> 55.7 µM (inactive)
26,N#Cc1cn(CC(=O)O)c2ccccc12,9.78 µM
